Reference: US11596639B2, “Substituted indole Mcl-1 inhibitors” (Vanderbilt University, priority 2016, dated 2023)
Read-outs that look alike come from different tables or passages of the source.

Experiments:
[1] = test system: H929 human cancer cell lines; assay: Cellular viability / proliferation (Cell TiterGlo, 72 h); type: cell-based
Experimental: Cellular Viability of Human Tumor Cell Lines
To evaluate compound effect on cellular proliferation, cells were plated at 1,000 cells/well in 96-well tissue culture plates in a total volume of 90 μL medium supplemented with 10% FBS (Sigma, Saint Louis, Mo.). 24 hours later, 10 μL of compound (in a 2-fold serial dilution) is added to the cells for a top concentration of 50 μM and a final DMSO concentration <1%. After 72 hours, 50 μL of Cell TiterGlo (Promega, Madison, Wis., USA) reagent is added to each well and plates are incubated at room temperature, in the dark, for 30 minutes. Luminescence is measured on a BioTek Cytation 3. Luminescence values are imported into a template in XLFit (Guildford, Surrey, UK) that uses a four-parameter fit to generate an IC50 value for each compound dilution series on the plate.

Mcl-1 = Mcl-1 (Homo sapiens (Human), UniProt Q07820); assay: Fluorescence polarization anisotropy (FPA) competition assay, FITC-Bak or FITC-Bim BH3 peptide; type: binding; details: read-out: Ki for Inhibition of Mcl-1 by FPA assay
[2] = Homo sapiens, NCI-H929, 72 h, read-out: GI50 on cellular proliferation of H929 human cancer cell lines, H929 cells, 72 h, Cell TiterGlo, 10% FBS

Sequence of Mcl-1 (Q07820 172-327): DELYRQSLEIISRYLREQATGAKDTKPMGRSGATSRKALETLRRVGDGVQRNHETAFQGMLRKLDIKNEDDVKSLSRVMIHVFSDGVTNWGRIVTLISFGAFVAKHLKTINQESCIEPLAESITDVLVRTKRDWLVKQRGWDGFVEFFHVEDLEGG

| Structure (SMILES) | GI50 [1, 2] | Ki (Mcl-1) | GI50 ([1]; read-out: GI50 on cellular proliferation of H929 human cancer cell lines, H929 cells, 72 h, Cell TiterGlo, 10% FBS) | GI50 ([1]; H929 cells, 72 h, Cell TiterGlo, 10% FBS, read-out: GI50 on cellular proliferation of H929 human cancer cell lines) |
| --- | --- | --- | --- | --- |
| Cc1cc(OCCCc2c3n(c4c(-c5c(C)nc(CN(C)C)nc5C)c(Cl)ccc24)[C@H](C)CN(c2cn(C)c4ccc(C(=O)O)cc24)C3=O)cc(C)c1Cl [Example 451, (R)-3-(7-Chloro-10-(3-(4-chloro-3,5-dimethylphenoxy)propyl)-6-(2-((dimethylamino)methyl)-4,6-dimethylpyrimidin-5-yl)-4-methyl-1-oxo-3,4-dihydropyrazino[1,2-a]indol-2(1H)-yl)-1-methyl-1H-indole-5-carboxylic acid] | < 0.2 µM | < 0.001 µM | – | – |
| Cc1cc(OCCCc2c3n(c4c(-c5c(C)nn(C)c5C)c(Cl)ccc24)CCCN(c2cc(C(=O)O)cc4nn(C)cc24)C3=O)cc(C)c1Cl [Example 36, 4-[8-Chloro-11-[3-(4-chloro-3,5-dimethyl-phenoxy)propyl]-1-oxo-7-(1,3,5-trimethylpyrazol-4-yl)-4,5-dihydro-3H-[1,4]diazepino[1,2-a]indol-2-yl]-2-methyl-indazole-6-carboxylic acid] | 2.6 µM | < 0.001 µM | – | – |
| Cc1cc(OCCCc2c3n(c4c(-c5c(C)nn(C)c5C)c(Cl)ccc24)[C@H](C)CN(c2ccc4c(c2)c(C(=O)O)nn4C)C3=O)cc(C)c1Cl [Example 116, (R)-5-(7-Chloro-10-(3-(4-chloro-3,5-dimethylphenoxy)propyl)-4-methyl-1-oxo-6-(1,3,5-trimethyl-1H-pyrazol-4-yl)-3,4-dihydropyrazino[1,2-a]indol-2(1H)-yl)-1-methyl-1H-indazole-3-carboxylic acid] | 9.7 µM | < 0.001 µM | – | – |
| Cc1cc(OCCCc2c3n(c4c(-c5c(C)nn(C)c5C)c(Cl)ccc24)[C@H](C)CN(c2cccc4c(C(=O)O)cn(C)c24)C3=O)cc(C)c1Cl [Example 215, (R)-7-(7-chloro-10-(3-(4-chloro-3,5-dimethylphenoxy)propyl)-4-methyl-1-oxo-6-(1,3,5-trimethyl-1H-pyrazol-4-yl)-3,4-dihydropyrazino[1,2-a]indol-2(1H)-yl)-1-methyl-1H-indole-3-carboxylic acid] | – | < 0.001 µM | 0.43 µM | – |
| CCn1cc(N2C[C@@H](C)n3c(c(CCCOc4cc(C)c(Cl)c(C)c4)c4ccc(Cl)c(-c5c(C)nn(C)c5C)c43)C2=O)c2cc(C(=O)O)ccc21 [Example 164, (R)-3-(7-Chloro-10-(3-(4-chloro-3,5-dimethylphenoxy)propyl)-4-methyl-1-oxo-6-(1,3,5-trimethyl-1H-pyrazol-4-yl)-3,4-dihydropyrazino[1,2-a]indol-2(1H)-yl)-1-ethyl-1H-indole-5-carboxylic acid] | 0.92 µM | 0.0017 µM | – | – |
| Cc1cc(OCCCc2c3n(c4c(-c5c(C)nn(C)c5C)c(Cl)ccc24)[C@H](C)CN(c2cccc4cccc(C(=O)O)c24)C3=O)cc(C)c1Cl [Example 191, (R)-8-(7-Chloro-10-(3-(4-chloro-3,5-dimethylphenoxy)propyl)-4-methyl-1-oxo-6-(1,3,5-trimethyl-1H-pyrazol-4-yl)-3,4-dihydropyrazino[1,2-a]indol-2(1H)-yl)-1-naphthoic acid] | 3.2 µM | < 0.001 µM | – | – |
| COc1cc(C(=O)O)cc(N2CCCn3c(c(CCCOc4cc(C)c(Cl)c(C)c4)c4ccc(Cl)c(-c5c(C)nn(C)c5C)c43)C2=O)c1OCCO [Example 62, 3-[8-chloro-11-[3-(4-chloro-3,5-dimethyl-phenoxy)propyl]-1-oxo-7-(1,3,5-trimethylpyrazol-4-yl)-4,5-dihydro-3H-[1,4]diazepino[1,2-a]indol-2-yl]-4-(2-hydroxyethoxy)-5-methoxy-benzoic acid] | 11 µM | < 0.001 µM | – | – |
| Cc1nn(C)c(C)c1-c1c(Cl)ccc2c(CCCOc3ccc(Cl)cc3)c3n(c12)[C@H](C)CN(c1cn(C)c2ccc(C(=O)O)cc12)C3=O [Example 409, (R)-3-(7-Chloro-10-(3-(4-chlorophenoxy)propyl)-4-methyl-1-oxo-6-(1,3,5-trimethyl-1H-pyrazol-4-yl)-3,4-dihydropyrazino[1,2-a]indol-2(1H)-yl)-1-methyl-1H-indole-5-carboxylic acid] | 2.8 µM | 0.0013 µM | – | – |
| Cc1cc(OCCCc2c3n(c4c(-c5c(C)nn(C)c5C)c(Cl)ccc24)[C@H](C)CN(c2cc(OCc4ccccc4)cc4cc(C(=O)O)n(C)c24)C3=O)cc(C)c1Cl [Example 345, (P, R)-5-(Benzyloxy)-7-(7-chloro-10-(3-(4-chloro-3,5-dimethylphenoxy)propyl)-4-methyl-1-oxo-6-(1,3,5-trimethyl-1H-pyrazol-4-yl)-3,4-dihydropyrazino[1,2-a]indol-2(1H)-yl)-1-methyl-1H-indole-2-carboxylic acid] | – | 0.0035 µM | – | 1.8 µM |
| Cc1cc(OCCCc2c3n(c4c(-c5c(C)nn(C)c5C)c(Cl)ccc24)CCCN(c2ccc4c(C(=O)O)cn(C)c4c2)C3=O)cc(C)c1Cl [Example 81, 6-(8-Chloro-11-(3-(4-chloro-3,5-dimethylphenoxy)propyl)-1-oxo-7-(1,3,5-trimethyl-1H-pyrazol-4-yl)-4,5-dihydro-1H-[1,4]diazepino[1,2-a]indol-2(3H)-yl)-1-methyl-1H-indole-3-carboxylic acid] | 2.9 µM | 0.0024 µM | – | – |
| Cc1cc(OCCCc2c3n(c4c(-c5c(C)nn(C)c5C)c(Cl)ccc24)[C@H](C)CN(c2cn(C)c4c(C(=O)O)cccc24)C3=O)cc(C)c1Cl [Example 75, (R)-3-(7-Chloro-10-(3-(4-chloro-3,5-dimethylphenoxy)propyl)-4-methyl-1-oxo-6-(1,3,5-trimethyl-1H-pyrazol-4-yl)-3,4-dihydropyrazino[1,2-a]indol-2(1H)-yl)-1-methyl-1H-indole-7-carboxylic acid] | 1.1 µM | < 0.001 µM | – | – |
| Cc1cc(OCCCc2c3n(c4c(-c5c(C)nn(C)c5C)c(Cl)ccc24)CCCN(c2cc(C(=O)O)c4c(Br)cn(C)c4c2)C3=O)cc(C)c1Cl [Example 2, 3-Bromo-6-(8-chloro-11-(3-(4-chloro-3,5-dimethylphenoxy)propyl)-1-oxo-7-(1,3,5-trimethyl-1H-pyrazol-4-yl)-4,5-dihydro-1H-[1,4]diazepino[1,2-a]indol-2(3H)-yl)-1-methyl-1H-indole-4-carboxylic acid] | 8.3 µM | < 0.001 µM | – | – |
| Cc1cc(OCCCc2c3n(c4c(-c5c(C)ncnc5C)c(Cl)ccc24)[C@H](C)CN(c2cccc4c(C(=O)O)cccc24)C3=O)cc(C)c1Cl [Example 148, 5-[(4R)-7-chloro-10-[3-(4-chloro-3,5-dimethyl-phenoxy)propyl]-6-(4,6-dimethylpyrimidin-5-yl)-4-methyl-1-oxo-3,4-dihydropyrazino[1,2-a]indol-2-yl]naphthalene-1-carboxylic acid] | 0.65 µM | < 0.001 µM | – | – |
| Cc1cc(N2C[C@@H](C)n3c(c(CCCOc4cc(C)c(Cl)c(C)c4)c4ccc(Cl)c(-c5c(C)n[nH]c5C)c43)C2=O)c2c(c1)cc(C(=O)O)n2C [Example 400, (R)-7-(7-chloro-10-(3-(4-chloro-3,5-dimethylphenoxy)propyl)-6-(3,5-dimethyl-1H-pyrazol-4-yl)-4-methyl-1-oxo-3,4-dihydropyrazino[1,2-a]indol-2(1H)-yl)-1,5-dimethyl-1H-indole-2-carboxylic acid] | 0.43 µM | 0.0014 µM | – | – |
| Cc1cc(OCCCc2c3n(c4c(-c5c(C)nn(C)c5C)c(Cl)ccc24)[C@H](C)CN(c2ccc(C(=O)O)c4c2ccn4C)C3=O)cc(C)c1Cl [Example 51, (R)-4-(7-chloro-10-(3-(4-chloro-3,5-dimethylphenoxy)propyl)-4-methyl-1-oxo-6-(1,3,5-trimethyl-1H-pyrazol-4-yl)-3,4-dihydropyrazino[1,2-a]indol-2(1H)-yl)-1-methyl-1H-indole-7-carboxylic acid] | 1.5 µM | < 0.001 µM | – | – |
| COCCCc1c2n(c3c(-c4c(C)nn(C)c4C)c(Cl)ccc13)[C@H](C)CN(c1cn(C)c3ccc(C(=O)O)cc13)C2=O [Example 406, (R)-3-(7-Chloro-10-(3-methoxypropyl)-4-methyl-1-oxo-6-(1,3,5-trimethyl-1H-pyrazol-4-yl)-3,4-dihydropyrazino[1,2-a]indol-2(1H)-yl)-1-methyl-1H-indole-5-carboxylic acid] | – | > 0.25 µM | – | – |
| Cc1cc(OCCCc2c3n(c4c(-c5c(C)nn(CC(=O)O)c5C)c(Cl)ccc24)CCCN(c2ccccc2)C3=O)cc(C)c1Cl [Example 136, 2-(4-(8-Chloro-11-(3-(4-chloro-3,5-dimethylphenoxy)propyl)-1-oxo-2-phenyl-2,3,4,5-tetrahydro-1H-[1,4]diazepino[1,2-a]indol-7-yl)-3,5-dimethyl-1H-pyrazol-1-yl)acetic acid] | – | < 0.001 µM | – | – |
| Cc1cc(OCCCc2c3n(c4c(-c5c(C)nn(C)c5C)c(Cl)ccc24)[C@H](C)CN(c2nc4cc(C(=O)O)ccn4n2)C3=O)cc(C)c1Cl [Example 135, (R)-2-(7-chloro-10-(3-(4-chloro-3,5-dimethylphenoxy)propyl)-4-methyl-1-oxo-6-(1,3,5-trimethyl-1H-pyrazol-4-yl)-3,4-dihydropyrazino[1,2-a]indol-2(1H)-yl)-[1,2,4]triazolo[1,5-a]pyridine-7-carboxylic acid] | – | < 0.001 µM | – | – |
